Data from patent publication US10702537B2, “Devices and methods of treating methamphetamine addiction and medical and behavioral consequences of methamphetamine use and of HIV infection” (Board of Supervisors of Louisiana State University and …, priority 2015, dated 2020).
“Also recorded” adds a separate entry of the source. Read-outs that look alike come from different tables or passages of the source.

Legend:
[1] = tested on: TSPO mRNA; details: rats; 1.0 mg/kg IP twice per day for 2 weeks, withdrawn for 7 days; cited from earlier work
[2] = humans, cited from earlier work
[3] = tested on: TSPO; details: cited from earlier work
[4] = rats, intraperitoneal injection; cited from earlier work
[5] = tested on: male rats; assay: methamphetamine self-administration in male rats; assay type: in vivo, rat; details: for antagonism of oxazepam's effect on methamphetamine self-administration: standard dose methamphetamine; for low dose methamphetamine self-administration: alprazolam 4 mg/kg IP, very low doses of methamphetamine, FIG. 3, 5A
[6] = tested on: female rats; assay: methamphetamine self-administration in female rats; assay type: in vivo, rat
Excerpt: Turning to FIGS. 6 and 7, the inventors tested the TSPO compound Ro5-4864 in an animal model of methamphetamine self-administration in male and female rats. […] The inventors compared these effects to the effects of the benzodiazepine alprazolam. […] The inventors also show preliminary data with Ro7-9277 with female rats.

[7] = tested on: female Wistar rats; assay: methamphetamine drug discrimination; assay type: in vivo, rat; details: female Wistar rats trained to discriminate 1 mg/kg methamphetamine (IP) from saline; pretreatment; alprazolam 4 mg/kg IP at low doses 0.125 and 0.25 mg/kg methamphetamine; FIG. 2A
Protocol: (§1) Adult female Wistar rats were trained to discriminate 1 mg/kg methamphetamine (IP) from saline using food pellet reinforcement according to previously published procedures (Mantsch and Goeders, 1999, 1998). Pretreatment with alprazolam (4 mg/kg, IP) enhanced the methamphetamine discriminative stimulus at doses of 0.125 and 0.25 mg/kg methamphetamine. […] These observations have been confirmed using a conditioned place preference model as well, evidencing that benzodiazepines differentially modulate the rewarding and reinforcing properties of methamphetamine. […] Thus, this is an extraordinarily consistent pattern across three very different models of drug-related behaviors.

[8] = tested on: rats; assay: methamphetamine drug-induced reinstatement (D-IR) study; assay type: in vivo, rat; details: FIG. 4
[9] = cocaine-related behaviors; details: in vivo
Protocol: Benzodiazepines affect cocaine and methamphetamine-related behaviors differently—The inventors' laboratory has long been interested in the role for benzodiazepines in drug addiction.
as §1

[10] = tested on: GABAA receptor; assay: ex vivo homogenate binding, GABAA receptor; details: structure-activity relationships, confirmed by ex vivo homogenate binding in rat brain tissue
[11] = biological target: TSPO (Rattus norvegicus, UniProt P16257); assay: ex vivo homogenate binding, TSPO; details: structure-activity relationships, confirmed by ex vivo homogenate binding in rat brain tissue
[12] = tested on: female rats; assay: cocaine drug discrimination; assay type: in vivo, rat; details: pretreatment, FIG. 2B
[13] = tested on: humans; details: Lile et al., cited from earlier work
[14] = tested on: drug-dependent individuals; details: cited from earlier work
[15] = tested on: rats; details: cited from earlier work
[16] = male rats trained at 0.06 mg/kg/infusion, pretreatment

Chain of TSPO (Rattus norvegicus, UniProt P16257) (P16257 whole entry): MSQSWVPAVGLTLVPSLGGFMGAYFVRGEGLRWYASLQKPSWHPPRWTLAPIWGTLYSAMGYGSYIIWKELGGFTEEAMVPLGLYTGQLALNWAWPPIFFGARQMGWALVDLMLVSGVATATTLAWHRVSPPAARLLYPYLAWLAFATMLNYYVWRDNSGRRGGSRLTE

Compound: CN[C@@H](C)Cc1ccccc1 [methamphetamine]
- TSPO mRNA [1]: enhances
- Tmax of methamphetamine in blood ([2]; intranasal administration): 2.82 ± 0.13 h
- Tmax of methamphetamine in blood ([2]; intravenously administered): 0.1 ± 0.183 h
- Tmax of methamphetamine in blood ([2]; oral, range 180-300 min): 3.6 h
- Tmax of methamphetamine in blood ([2]; smoked): 2.5 ± 0.5 h
- TSPO binding ([3]; self-administration of methamphetamine 0.3 mg/kg/inf): enhances
- TSPO binding in the striatum, cerebellum and hippocampus ([3]; subchronic repeated doses 4×10 mg/kg SC every two hours, within 72 hours): increase
- Tmax of methamphetamine [4]: 7.5 ± 2.8 min

Compound: CCC(C)N(C)C(=O)c1cc2ccccc2c(-c2ccccc2Cl)n1 (stereo not shown) [PK11195]
- antagonism of oxazepam's effect on methamphetamine self-administration ([5]; male rats, FIG. 5B): partially blocked
- antagonism of oxazepam's effect on methamphetamine self-administration ([5]; male rats, FIG. 5B, listed as PKII195): blocked

Compound: CN1C(=O)CN=C(c2ccc(Cl)cc2)c2cc(Cl)ccc21 [Ro5-4864, 4′,7-Dichloro-1,3-dihydro-1-methyl-5-phenyl-2H-1,4-benzodiazepin-2-one]
- sensitivity of female rats compared to male rats to the effect on methamphetamine self-administration ([6]; FIG. 7 versus FIG. 6): significantly more sensitive
- methamphetamine self-administration ([6]; female rats, FIG. 7): dose-related decrease
- methamphetamine self-administration ([5]; male rats, FIG. 6): dose-related decrease

Compound: O=C1Nc2ccc(Cl)cc2C(c2ccccc2)=NC1O (stereo not shown) [oxazepam, 7-chloro-1,3-dihydro-3-hydroxy-5-phenyl-2H-1,4-benzodiazepin-2-one]
- methamphetamine discriminative stimulus effects [7]: dose-dependently decreased
- methamphetamine-induced reinstatement ([8]; all doses tested): decreased
- cocaine-related behaviors [9]: decrease; also recorded: reduce
- binding to the GABAA receptor [10]: binds
- binding to the TSPO [11]: binds
- low dose methamphetamine self-administration [5, 16]: no effect
- methamphetamine self-administration across all doses tested ([5]; male rats trained at 0.06 mg/kg/infusion, pretreatment, FIG. 3): decreased; also recorded: significant decreases
- standard dose methamphetamine self-administration ([5]; male rats, FIG. 5B): decreased
- cocaine discriminative stimulus effects [12]: dose-dependently decreased
- subjective effects of d-amphetamine ([13]; benzodiazepine given acutely at the same time as amphetamine): no significant effect
- desirability among benzodiazepines (abuse liability) [14]: one of the least desirable

Compound: CCOC(=O)c1ncn2c1CN(C)C(=O)c1cc(F)ccc1-2 [flumazenil]
- antagonism of alprazolam's effect on low-dose methamphetamine self-administration ([5]; antagonist administered 30 minutes prior to alprazolam, FIG. 5A): inhibited; also recorded: blocked
- antagonism of oxazepam's effect on methamphetamine self-administration ([5]; male rats, FIG. 5B): partially blocked

Compound: Cc1nnc2n1-c1ccc(Cl)cc1C(c1ccccc1)=NC2 [alprazolam, 8-chloro-1-methyl-5-phenyl-4H-(1,2,4)triazolo-1,4-benzodiazepine]
- methamphetamine discriminative stimulus effects [7]: enhanced
- low dose methamphetamine-induced reinstatement ([8]; low-dose priming injection of methamphetamine): enhanced; also recorded: potentiated
- cocaine-related behaviors [9]: decrease; also recorded: reduce
- binding to the GABAA receptor [10]: binds selectively
- binding to the TSPO [11]: low affinity
- low dose methamphetamine self-administration [5, 16]: enhanced; also recorded: significant increases
- cocaine discriminative stimulus effects [12]: did not affect; also recorded: no effect
- subjective effects of the methamphetamine high ([13]; benzodiazepine given acutely at the same time as the stimulant): reduced
- desirability among benzodiazepines (abuse liability) [14]: one of the most desired

Compound: CC(=O)[C@H]1CC[C@H]2[C@@H]3CC[C@H]4C[C@H](O)CC[C@]4(C)[C@H]3CC[C@]12C [Allopregnanolone]
- cocaine-related responding ([15]; both genders): decrease
- methamphetamine-related responding ([15]; female rats): decrease
